Experiments:
[1] = biological target: CDK4 (Homo sapiens, UniProt P11802+Q16531); assay: HiBiT detection of HiBiT-tagged CDK4 protein level in MCF7 cells, 16 hours (Table 8); format: cell-based; parameters: expressed in transfected cells; host or cells: MCF7; conditions: MCF7 cells stably expressing HiBiT tagged target proteins; for activity at 0.01 µM: 10 nM, read-out: % CDK4 Relative Level (10 nM); for activity at 0.1 µM: 100 nM, read-out: % CDK4 Relative Level (100 nM)
Protocol: HiBiT detection system quantitatively measures total amounts of HiBiT-tagged proteins using a luminescent based method. MCF7 cells stably expressing HiBiT tagged target proteins were treated with heterobifunctional compounds at indicated concentrations for 16 hours, then lysed with Nano-Glo HiBiT Lytic detection reagents.

[2] = tested on: MCF7 cells; assay: Anti-proliferation (viability) of MCF7 cells (Table 7, FIG. 2B); format: cell-based; conditions: Homo sapiens, MCF7, MCF7 cells, 3-6 days, 10-point serial dilution; read-out: GI IC50 in MCF-7

Chain of CDK4 (P11802 whole entry): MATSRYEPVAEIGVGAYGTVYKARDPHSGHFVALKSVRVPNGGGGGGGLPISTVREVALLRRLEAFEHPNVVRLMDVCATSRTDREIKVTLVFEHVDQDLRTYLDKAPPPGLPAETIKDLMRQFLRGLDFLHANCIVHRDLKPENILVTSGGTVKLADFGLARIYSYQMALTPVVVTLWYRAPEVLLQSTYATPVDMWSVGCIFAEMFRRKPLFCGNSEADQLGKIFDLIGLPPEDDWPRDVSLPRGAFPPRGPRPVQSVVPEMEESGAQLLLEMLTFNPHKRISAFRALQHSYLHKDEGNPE
Chain of CDK4 (P24385 whole entry partner): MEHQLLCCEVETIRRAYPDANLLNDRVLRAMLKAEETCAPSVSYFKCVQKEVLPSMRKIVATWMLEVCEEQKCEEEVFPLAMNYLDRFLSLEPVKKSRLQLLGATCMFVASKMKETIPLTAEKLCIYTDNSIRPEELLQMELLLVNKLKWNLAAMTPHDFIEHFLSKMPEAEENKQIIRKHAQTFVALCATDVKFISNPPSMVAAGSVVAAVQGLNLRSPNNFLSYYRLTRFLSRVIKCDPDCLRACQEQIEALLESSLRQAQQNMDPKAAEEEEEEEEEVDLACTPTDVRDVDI
Chain of CDK4 (Q16531 2-1140 limits assumed): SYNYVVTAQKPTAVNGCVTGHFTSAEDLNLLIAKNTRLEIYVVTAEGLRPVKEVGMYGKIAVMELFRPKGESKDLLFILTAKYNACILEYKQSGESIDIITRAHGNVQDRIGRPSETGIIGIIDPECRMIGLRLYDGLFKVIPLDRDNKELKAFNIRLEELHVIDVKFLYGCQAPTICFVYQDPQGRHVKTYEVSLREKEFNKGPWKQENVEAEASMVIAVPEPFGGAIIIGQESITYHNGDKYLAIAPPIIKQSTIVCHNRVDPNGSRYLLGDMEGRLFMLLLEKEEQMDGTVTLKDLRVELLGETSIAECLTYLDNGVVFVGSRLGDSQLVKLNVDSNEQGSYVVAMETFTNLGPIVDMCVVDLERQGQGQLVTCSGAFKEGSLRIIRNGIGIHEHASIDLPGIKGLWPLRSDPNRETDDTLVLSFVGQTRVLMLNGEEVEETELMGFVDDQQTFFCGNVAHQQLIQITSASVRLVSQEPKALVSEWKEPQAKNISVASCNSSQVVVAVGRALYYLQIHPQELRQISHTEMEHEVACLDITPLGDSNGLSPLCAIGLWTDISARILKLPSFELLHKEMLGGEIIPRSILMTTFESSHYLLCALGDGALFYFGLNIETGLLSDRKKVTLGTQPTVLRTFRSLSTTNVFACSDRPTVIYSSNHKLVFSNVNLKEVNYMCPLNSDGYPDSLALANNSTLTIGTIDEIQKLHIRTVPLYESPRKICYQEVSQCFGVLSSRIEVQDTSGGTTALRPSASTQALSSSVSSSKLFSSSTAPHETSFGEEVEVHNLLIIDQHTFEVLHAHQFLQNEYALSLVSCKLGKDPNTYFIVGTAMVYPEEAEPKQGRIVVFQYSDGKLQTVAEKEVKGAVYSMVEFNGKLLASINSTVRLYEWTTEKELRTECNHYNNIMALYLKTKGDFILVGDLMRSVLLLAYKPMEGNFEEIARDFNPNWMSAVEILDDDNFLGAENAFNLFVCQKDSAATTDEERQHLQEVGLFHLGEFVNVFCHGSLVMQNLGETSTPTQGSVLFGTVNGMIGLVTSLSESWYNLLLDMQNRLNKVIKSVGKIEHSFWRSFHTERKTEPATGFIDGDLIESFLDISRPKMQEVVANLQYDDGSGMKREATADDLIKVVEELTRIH

Row | Compound | activity at 0.01 µM [1] [%] | activity at 0.1 µM [1] [%] | IC50 [2] [nM]
1 | CNc1ccc(C(=O)Nc2ccc(N(C)C)nn2)c(NCCCC(=O)NC2CCC(Nc3ncc4ccc(=O)n(C5CCCC5)c4n3)CC2)n1 (centres unmarked) [CPD-667, 2-((4-((4-((8-cyclopentyl-7-oxo-7,8-dihydropyrido[2,3-d]pyrimidin-2-yl)amino)cyclohexyl)amino)-4-oxobutyl)amino)-N-(6-(dimethylamino)pyridazin-3-yl)-6-(methylamino)nicotinamide] | > 85 | > 85 | –
2 | CNc1ccc(C(=O)Nc2ccc(N(C)C)nn2)c(NCCCCC(=O)NC2CCC(Nc3ncc4ccc(=O)n(C5CCCC5)c4n3)CC2)n1 (centres unmarked) [CPD-668, 2-((5-((4-((8-cyclopentyl-7-oxo-7,8-dihydropyrido[2,3-d]pyrimidin-2-yl)amino)cyclohexyl)amino)-5-oxopentyl)amino)-N-(6-(dimethylamino)pyridazin-3-yl)-6-(methylamino)nicotinamide] | > 85 | > 85 | –
3 | CNc1ccc(C(=O)Nc2ccc(N(C)C)nn2)c(NCCCCCC(=O)NC2CCC(Nc3ncc4ccc(=O)n(C5CCCC5)c4n3)CC2)n1 (centres unmarked) [CPD-669, 2-((6-((4-((8-cyclopentyl-7-oxo-7,8-dihydropyrido[2,3-d]pyrimidin-2-yl)amino)cyclohexyl)amino)-6-oxohexyl)amino)-N-(6-(dimethylamino)pyridazin-3-yl)-6-(methylamino)nicotinamide] | > 85 | > 85 | –
4 | CNc1ccc(C(=O)Nc2ccc(N(C)C)nn2)c(NCCCCCCC(=O)NC2CCC(Nc3ncc4ccc(=O)n(C5CCCC5)c4n3)CC2)n1 (centres unmarked) [CPD-670, 2-((7-((4-((8-cyclopentyl-7-oxo-7,8-dihydropyrido[2,3-d]pyrimidin-2-yl)amino)cyclohexyl)amino)-7-oxoheptyl)amino)-N-(6-(dimethylamino)pyridazin-3-yl)-6-(methylamino)nicotinamide] | > 85 | > 85 | –
5 | CNc1ccc(C(=O)Nc2ccc(N(C)C)nn2)c(NCCCCCCCC(=O)NC2CCC(Nc3ncc4ccc(=O)n(C5CCCC5)c4n3)CC2)n1 (centres unmarked) [CPD-671, 2-((8-((4-((8-cyclopentyl-7-oxo-7,8-dihydropyrido[2,3-d]pyrimidin-2-yl)amino)cyclohexyl)amino)-8-oxooctyl)amino)-N-(6-(dimethylamino)pyridazin-3-yl)-6-(methylamino)nicotinamide] | > 85 | > 85 | –
6 | CNc1ccc(C(=O)Nc2ccc(N(C)C)nn2)c(NCCOCCC(=O)NC2CCC(Nc3ncc4ccc(=O)n(C5CCCC5)c4n3)CC2)n1 (centres unmarked) [CPD-672, 2-((2-(3-((4-((8-cyclopentyl-7-oxo-7,8-dihydropyrido[2,3-d]pyrimidin-2-yl)amino)cyclohexyl)amino)-3-oxopropoxy)ethyl)amino)-N-(6-(dimethylamino)pyridazin-3-yl)-6-(methylamino)nicotinamide] | > 85 | > 85 | –
7 | CNc1ccc(C(=O)Nc2ccc(N(C)C)nn2)c(NCCCCCCCC(=O)NC2CCC3(CC2)CC(Nc2ncc4ccc(=O)n(C5CCCC5)c4n2)C3)n1 (centres unmarked) [CPD-678, 2-((8-((2-((8-cyclopentyl-7-oxo-7,8-dihydropyrido[2,3-d]pyrimidin-2-yl)amino)spiro[3.5]nonan-7-yl)amino)-8-oxooctyl)amino)-N-(6-(dimethylamino)pyridazin-3-yl)-6-(methylamino)nicotinamide] | > 85 | > 85 | –
8 | CNc1ccc(C(=O)Nc2ccc(N(C)C)nn2)c(NCCOCCC(=O)NC2CCC3(CC2)CC(Nc2ncc4ccc(=O)n(C5CCCC5)c4n2)C3)n1 (centres unmarked) [CPD-679, 2-((2-(3-((2-((8-cyclopentyl-7-oxo-7,8-dihydropyrido[2,3-d]pyrimidin-2-yl)amino)spiro[3.5]nonan-7-yl)amino)-3-oxopropoxy)ethyl)amino)-N-(6-(dimethylamino)pyridazin-3-yl)-6-(methylamino)nicotinamide] | > 85 | > 85 | –

Second part, the compound after the results:

Row | activity at 0.01 µM [1] [%] | activity at 0.1 µM [1] [%] | IC50 [2] [nM] | Compound
9 | 55 to 85 | 55 to 85 | < 50 | CC(=O)c1c(C)c2cnc(Nc3ccc(N4CCN(C(C)CC(=O)N5CC6(CC(Nc7nc(NC(C)C)ccc7C(=O)Nc7ccc(N(C)C)nn7)C6)C5)CC4)cn3)nc2n(C2CCCC2)c1=O (centres unmarked) [CPD-368, 2-((2-(3-(4-(6-((6-acetyl-8-cyclopentyl-5-methyl-7-oxo-7,8-dihydropyrido[2,3-d]pyrimidin-2-yl)amino)pyridin-3-yl)piperazin-1-yl)butanoyl)-2-azaspiro[3.3]heptan-6-yl)amino)-N-(6-(dimethylamino)pyridazin-3-yl)-6-(isopropylamino)nicotinamide]
10 | 55 to 85 | 55 to 85 | < 50 | CC(=O)c1c(C)c2cnc(Nc3ccc(N4CCC5(CC4)CC5C(=O)N4CCC(Nc5nc(NC(C)C)ccc5C(=O)Nc5ccc(N(C)C)nn5)CC4)cn3)nc2n(C2CCCC2)c1=O (centres unmarked) [CPD-407, 2-((1-(6-(6-((6-acetyl-8-cyclopentyl-5-methyl-7-oxo-7,8-dihydropyrido[2,3-d]pyrimidin-2-yl)amino)pyridin-3-yl)-6-azaspiro[2.5]octane-1-carbonyl)piperidin-4-yl)amino)-N-(6-(dimethylamino)pyridazin-3-yl)-6-(isopropylamino)nicotinamide]
11 | 55 to 85 | 55 to 85 | < 50 | CC(=O)c1c(C)c2cnc(Nc3ccc(N4CCC5(CC4)CC5C(=O)NC4CC5(C4)CC(Nc4nc(NC(C)C)ccc4C(=O)Nc4ccc(N(C)C)nn4)C5)cn3)nc2n(C2CCCC2)c1=O (centres unmarked) [CPD-414, 6-(6-((6-acetyl-8-cyclopentyl-5-methyl-7-oxo-7,8-dihydropyrido[2,3-d]pyrimidin-2-yl)amino)pyridin-3-yl)-N-(6-((3-((6-(dimethylamino)pyridazin-3-yl)carbamoyl)-6-(isopropylamino)pyridin-2-yl)amino)spiro[3.3]heptan-2-yl)-6-azaspiro[2.5]octane-1-carboxamide]
12 | > 85 | 55 to 85 | < 50 | CC(=O)c1c(C)c2cnc(Nc3ccc(CN4CCN(CC(=O)N5CC6(CC(Nc7nc(NC(C)C)ccc7C(=O)Nc7ccc(N(C)C)nn7)C6)C5)CC4)cn3)nc2n(C2CCCC2)c1=O [CPD-422, 2-((2-(2-(4-((6-((6-acetyl-8-cyclopentyl-5-methyl-7-oxo-7,8-dihydropyrido[2,3-d]pyrimidin-2-yl)amino)pyridin-3-yl)methyl)piperazin-1-yl)acetyl)-2-azaspiro[3.3]heptan-6-yl)amino)-N-(6-(dimethylamino)pyridazin-3-yl)-6-(isopropylamino)nicotinamide]
13 | 55 to 85 | 55 to 85 | < 50 | CC(=O)c1c(C)c2cnc(Nc3ccc(N4CCC(N(C)CC(=O)N5CC6(CC(Nc7nc(NC(C)C)ccc7C(=O)Nc7ccc(N(C)C)nn7)C6)C5)CC4)cn3)nc2n(C2CCCC2)c1=O [CPD-425, 2-((2-(N-(1-(6-((6-acetyl-8-cyclopentyl-5-methyl-7-oxo-7,8-dihydropyrido[2,3-d]pyrimidin-2-yl)amino)pyridin-3-yl)piperidin-4-yl)-N-methylglycyl)-2-azaspiro[3.3]heptan-6-yl)amino)-N-(6-(dimethylamino)pyridazin-3-yl)-6-(isopropylamino)nicotinamide]
14 | > 85 | > 85 | – | CNc1ccc(C(=O)Nc2ccc(N(C)C)nn2)c(NCCC(=O)NC2CCC3(CC2)CC(Nc2ncc4ccc(=O)n(C5CCCC5)c4n2)C3)n1 (centres unmarked) [CPD-673, 2-((3-((2-((8-cyclopentyl-7-oxo-7,8-dihydropyrido[2,3-d]pyrimidin-2-yl)amino)spiro[3.5]nonan-7-yl)amino)-3-oxopropyl)amino)-N-(6-(dimethylamino)pyridazin-3-yl)-6-(methylamino)nicotinamide]
15 | > 85 | > 85 | – | CNc1ccc(C(=O)Nc2ccc(N(C)C)nn2)c(NCCCC(=O)NC2CCC3(CC2)CC(Nc2ncc4ccc(=O)n(C5CCCC5)c4n2)C3)n1 (centres unmarked) [CPD-674, 2-((4-((2-((8-cyclopentyl-7-oxo-7,8-dihydropyrido[2,3-d]pyrimidin-2-yl)amino)spiro[3.5]nonan-7-yl)amino)-4-oxobutyl)amino)-N-(6-(dimethylamino)pyridazin-3-yl)-6-(methylamino)nicotinamide]
16 | > 85 | > 85 | – | CNc1ccc(C(=O)Nc2ccc(N(C)C)nn2)c(NCCCCC(=O)NC2CCC3(CC2)CC(Nc2ncc4ccc(=O)n(C5CCCC5)c4n2)C3)n1 (centres unmarked) [CPD-675, 2-((5-((2-((8-cyclopentyl-7-oxo-7,8-dihydropyrido[2,3-d]pyrimidin-2-yl)amino)spiro[3.5]nonan-7-yl)amino)-5-oxopentyl)amino)-N-(6-(dimethylamino)pyridazin-3-yl)-6-(methylamino)nicotinamide]
17 | > 85 | > 85 | – | CNc1ccc(C(=O)Nc2ccc(N(C)C)nn2)c(NCCCCCC(=O)NC2CCC3(CC2)CC(Nc2ncc4ccc(=O)n(C5CCCC5)c4n2)C3)n1 (centres unmarked) [CPD-676, 2-((6-((2-((8-cyclopentyl-7-oxo-7,8-dihydropyrido[2,3-d]pyrimidin-2-yl)amino)spiro[3.5]nonan-7-yl)amino)-6-oxohexyl)amino)-N-(6-(dimethylamino)pyridazin-3-yl)-6-(methylamino)nicotinamide]
18 | > 85 | > 85 | – | CNc1ccc(C(=O)Nc2ccc(N(C)C)nn2)c(NCCCCCCC(=O)NC2CCC3(CC2)CC(Nc2ncc4ccc(=O)n(C5CCCC5)c4n2)C3)n1 (centres unmarked) [CPD-677, 2-((7-((2-((8-cyclopentyl-7-oxo-7,8-dihydropyrido[2,3-d]pyrimidin-2-yl)amino)spiro[3.5]nonan-7-yl)amino)-7-oxoheptyl)amino)-N-(6-(dimethylamino)pyridazin-3-yl)-6-(methylamino)nicotinamide]
